Converted amounts (≈) assume the structure as drawn. Like-named read-outs stand apart in the source and are kept apart here.
Tests used:
E. coli AG100A = experiment: Broth microdilution MIC in CAMHB; type: cell-based; conditions: Escherichia coli, read-out: MIC E. coli AG100A
A. baumannii ATCC 19606 = experiment: microbe, parasite or virus in culture; type: cell-based; conditions: Acinetobacter baumannii, ATCC19606, read-out: MIC, A. baumannii ATCC 19606
[1] = system: P. aeruginosa (ΔmexAB-oprM); experiment: Broth microdilution MIC in CAMHB; type: cell-based
E. coli AG100 = experiment: microbe, parasite or virus in culture; type: cell-based; conditions: Escherichia coli, AG100, read-out: MIC E. coli AG100
E. coli D22 = experiment: microbe, parasite or virus in culture; type: cell-based; conditions: Escherichia coli, D22, read-out: MIC E. coli D22
P. aeruginosa ATCC 27853 = experiment: microbe, parasite or virus in culture; type: cell-based; conditions: Pseudomonas aeruginosa, ATCC27853, read-out: MIC P. aeruginosa ATCC 27853
K. pneumoniae 848844 = experiment: microbe, parasite or virus in culture; type: cell-based; conditions: Klebsiella pneumoniae, 848844, read-out: MIC K. pneumoniae 848844
[2] = target: T1, PBP1a from Acinetobacter baumannii (ATCC 19606) (Acinetobacter baumannii, UniProt A0ABX6CK30); experiment: Bocillin-FL fluorescence polarization competition binding, A. baumannii PBP1a; conditions: fluorescence polarization competition binding assay using Bocillin-FL; read-out: A. baumannii PBP1a Potency
T1 sequence (A0ABX6CK30 1-851): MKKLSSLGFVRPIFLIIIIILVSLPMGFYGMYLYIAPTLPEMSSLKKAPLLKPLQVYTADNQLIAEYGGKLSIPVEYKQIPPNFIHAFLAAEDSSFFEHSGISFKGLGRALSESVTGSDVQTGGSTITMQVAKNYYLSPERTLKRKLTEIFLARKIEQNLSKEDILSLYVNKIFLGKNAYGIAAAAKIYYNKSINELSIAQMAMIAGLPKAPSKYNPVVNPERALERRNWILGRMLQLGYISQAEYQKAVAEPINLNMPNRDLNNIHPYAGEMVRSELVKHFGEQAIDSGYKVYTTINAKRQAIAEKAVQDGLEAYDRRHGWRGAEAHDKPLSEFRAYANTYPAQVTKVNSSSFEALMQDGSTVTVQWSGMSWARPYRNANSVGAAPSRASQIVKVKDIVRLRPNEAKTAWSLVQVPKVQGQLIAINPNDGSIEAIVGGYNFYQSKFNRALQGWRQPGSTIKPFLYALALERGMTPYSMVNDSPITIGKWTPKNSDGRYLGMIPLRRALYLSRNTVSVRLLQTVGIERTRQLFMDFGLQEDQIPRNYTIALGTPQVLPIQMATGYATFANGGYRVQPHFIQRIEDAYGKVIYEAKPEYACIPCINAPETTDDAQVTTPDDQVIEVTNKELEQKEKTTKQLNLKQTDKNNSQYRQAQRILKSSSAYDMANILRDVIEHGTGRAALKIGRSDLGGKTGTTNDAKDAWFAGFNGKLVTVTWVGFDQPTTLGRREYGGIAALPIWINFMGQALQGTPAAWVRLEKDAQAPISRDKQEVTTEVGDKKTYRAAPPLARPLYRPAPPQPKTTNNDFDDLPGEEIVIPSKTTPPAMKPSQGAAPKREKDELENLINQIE
Summary of the method: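 Purified PBP was preincubated with inhibitor (E. coli PBP3 1.5 μM, 30 min; P. aeruginosa PBP3 0.75 μM, A. baumannii PBP3 0.2 μM and PBP1a 1 μM, 15 min), then Bocillin-FL (0.1 μM; 0.05 μM for PBP1a) added and FP read up to 60 min. EC50 = 50% loss of bound probe.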

B. pseudomallei Bp82 = experiment: microbe, parasite or virus in culture; type: cell-based; conditions: Burkholderia pseudomallei, BP82, read-out: Minimum inhibitory concentration, B. pseudomallei Bp82

O=C(O)c1c(F)ccc2c1OB(O)[C@@H](NC(=O)[C@H](NC(=O)N1CCN(Cc3ccc(O)c(O)c3Cl)C(=O)C1=O)c1ccc(P(=O)(O)O)cc1)C2 (single isomer, unassigned) [Example 160]
MIC (E. coli AG100A): < 1 µg/mL
MIC (A. baumannii ATCC 19606): < 1 µg/mL
MIC ([1]; Pseudomonas aeruginosa; read-out: MIC P. aeruginosa ΔmexAB-oprM): < 1 µg/mL
MIC (E. coli AG100): < 1 µg/mL
MIC (E. coli D22): 2 to 4 µg/mL (≈ 2.72 to 5.44 µM)
MIC (P. aeruginosa ATCC 27853): < 1 µg/mL
MIC (K. pneumoniae 848844): 32 to 64 µg/mL (≈ 43.6 to 87.1 µM)

O=C(O)c1c(F)ccc2c1OB(O)[C@@H](NC(=O)[C@H](NC(=O)N1CCN(C3CCN(C(=O)Nc4cc(O)ccc4Cl)CC3)C1=O)c1cc(F)c(O)c(O)c1Cl)C2 (single isomer, unassigned) [Example 448]
IC50 [2]: > 250 µM

O=C(O)c1c(F)ccc2c1OB(O)[C@@H](NC(=O)[C@H](NC(=O)N1CCN(C3CCN(C(=O)Nc4ccc(F)c(O)c4)CC3)C1=O)c1cc(F)c(O)c(O)c1Cl)C2 (single isomer, unassigned) [Example 449]
IC50 [2]: > 250 µM

O=C(O)c1c(F)ccc2c1OB(O)[C@@H](NC(=O)[C@H](NC(=O)N1CCN(C3CCN(C(=O)Nc4cc(O)cc(F)c4)CC3)C1=O)c1cc(F)c(O)c(O)c1Cl)C2 (single isomer, unassigned) [Example 450]
IC50 [2]: > 250 µM

O=C(O)c1c(F)ccc2c1OB(O)[C@@H](NC(=O)[C@H](NC(=O)N1CCN(C3CCN(C(=O)Nc4c(F)ccc(O)c4F)CC3)C1=O)c1cc(F)c(O)c(O)c1Cl)C2 (single isomer, unassigned) [Example 454]
IC50 [2]: > 250 µM

O=C(O)c1c(F)ccc2c1OB(O)[C@@H](NC(=O)[C@H](NC(=O)N1CCN(C3CCN(C(=O)c4cc(F)c(O)c(O)c4Cl)CC3)C1=O)c1ccc(P(=O)(O)O)cc1)C2 (single isomer, unassigned) [Example 495]
MIC (B. pseudomallei Bp82): < 1 µg/mL

O=C(O)c1c(F)ccc2c1OB(O)[C@@H](NC(=O)[C@H](NC(=O)N1CCN(C3CCN(C(=O)Nc4ccc(O)c(O)c4Cl)CC3)C1=O)c1ccc(P(=O)(O)O)cc1)C2 (single isomer, unassigned) [Example 497]
MIC (B. pseudomallei Bp82): < 1 µg/mL

O=C(O)c1c(F)ccc2c1OB(O)[C@@H](NC(=O)[C@H](NC(=O)N1CCN(C3CCN(C(=O)Nc4cc(F)c(O)c(O)c4Cl)CC3)C1=O)c1ccc(P(=O)(O)O)cc1)C2 (single isomer, unassigned) [Example 500]
MIC (B. pseudomallei Bp82): < 1 µg/mL

O=C(O)c1cccc2c1OB(O)[C@@H](NC(=O)C(NC(=O)N1CCN(Cc3cc(F)c(O)c(O)c3Cl)C(=O)C1=O)c1ccc(P(=O)(O)O)cc1)C2 (stereo partly drawn) [Example 164, (3R)-3-(2-(4-(2-chloro-5-fluoro-3,4-dihydroxybenzyl)-2,3-dioxopiperazine-1-carboxamido)-2-(4-phosphonophenyl)acetamido)-2-hydroxy-3,4-dihydro-2H-benzo[e][1,2]oxaborinine-8-carboxylic acid]
IC50 [2]: > 250 µM

O=C(O)c1c(F)ccc2c1OB(O)[C@@H](NC(=O)C(NC(=O)N1CCN(C3CCN(C(=O)Nc4ccc(F)c(O)c4F)CC3)C1=O)c1cc(F)c(O)c(O)c1Cl)C2 (stereo partly drawn) [Example 452, (3R)-3-(2-(2-chloro-5-fluoro-3,4-dihydroxyphenyl)-2-(3-(1-((2,4-difluoro-3-hydroxyphenyl)carbamoyl)piperidin-4-yl)-2-oxoimidazolidine-1-carboxamido)acetamido)-7-fluoro-2-hydroxy-3,4-dihydro-2H-benzo[e][1,2]oxaborinine-8-carboxylic acid]
IC50 [2]: > 250 µM

O=C(O)c1c(F)ccc2c1OB(O)[C@@H](NC(=O)C(NC(=O)N1CCN(C3CCN(C(=O)Nc4cc(O)ccc4F)CC3)C(=O)C1=O)c1cc(F)c(O)c(O)c1Cl)C2 (stereo partly drawn) [Example 479, (3R)-3-(2-(2-chloro-5-fluoro-3,4-dihydroxyphenyl)-2-(4-(1-((2-fluoro-5-hydroxyphenyl)carbamoyl)piperidin-4-yl)-2,3-dioxopiperazine-1-carboxamido)acetamido)-7-fluoro-2-hydroxy-3,4-dihydro-2H-benzo[e][1,2]oxaborinine-8-carboxylic acid]
IC50 [2]: > 250 µM

O=C(O)c1c(F)ccc2c1OB(O)[C@@H](NC(=O)C(NC(=O)N1CCN(C3CCN(C(=O)Nc4ccc(F)c(O)c4)CC3)C(=O)C1=O)c1cc(F)c(O)c(O)c1Cl)C2 (stereo partly drawn) [Example 480, (3R)-3-(2-(2-chloro-5-fluoro-3,4-dihydroxyphenyl)-2-(4-(1-((4-fluoro-3-hydroxyphenyl)carbamoyl)piperidin-4-yl)-2,3-dioxopiperazine-1-carboxamido)acetamido)-7-fluoro-2-hydroxy-3,4-dihydro-2H-benzo[e][1,2]oxaborinine-8-carboxylic acid]
IC50 [2]: > 250 µM

O=C(O)c1c(F)ccc2c1OB(O)[C@@H](NC(=O)C(NC(=O)N1CCN(C3CCN(C(=O)Nc4cc(O)cc(F)c4)CC3)C(=O)C1=O)c1cc(F)c(O)c(O)c1Cl)C2 (stereo partly drawn) [Example 481, (3R)-3-(2-(2-chloro-5-fluoro-3,4-dihydroxyphenyl)-2-(4-(1-((3-fluoro-5-hydroxyphenyl)carbamoyl)piperidin-4-yl)-2,3-dioxopiperazine-1-carboxamido)acetamido)-7-fluoro-2-hydroxy-3,4-dihydro-2H-benzo[e][1,2]oxaborinine-8-carboxylic acid]
IC50 [2]: > 250 µM

O=C(O)c1c(F)ccc2c1OB(O)[C@@H](NC(=O)[C@H](NC(=O)N1CCN(C3CCN(C(=O)Nc4cccc(O)c4Cl)CC3)C(=O)C1=O)c1cc(F)c(O)c(O)c1Cl)C2 [Example 482, (R)-3-((R)-2-(4-(1-((2-chloro-3-hydroxyphenyl)carbamoyl)piperidin-4-yl)-2,3-dioxopiperazine-1-carboxamido)-2-(2-chloro-5-fluoro-3,4-dihydroxyphenyl)acetamido)-7-fluoro-2-hydroxy-3,4-dihydro-2H-benzo[e][1,2]oxaborinine-8-carboxylic acid]
IC50 [2]: > 250 µM

O=C(O)c1c(F)ccc2c1OB(O)[C@@H](NC(=O)C(NC(=O)N1CCN(C3CCN(C(=O)Nc4cc(O)ccc4Cl)CC3)C(=O)C1=O)c1cc(F)c(O)c(O)c1Cl)C2 (stereo partly drawn) [Example 483, (3R)-3-(2-(2-chloro-5-fluoro-3,4-dihydroxyphenyl)-2-(4-(1-((2-chloro-5-hydroxyphenyl)carbamoyl)piperidin-4-yl)-2,3-dioxopiperazine-1-carboxamido)acetamido)-7-fluoro-2-hydroxy-3,4-dihydro-2H-benzo[e][1,2]oxaborinine-8-carboxylic acid]
IC50 [2]: > 250 µM

O=C(O)c1c(F)ccc2c1OB(O)[C@@H](NC(=O)C(NC(=O)N1CCN(C3CCN(C(=O)Nc4cc(O)cc(Cl)c4)CC3)C(=O)C1=O)c1cc(F)c(O)c(O)c1Cl)C2 (stereo partly drawn) [Example 484, (3R)-3-(2-(2-chloro-5-fluoro-3,4-dihydroxyphenyl)-2-(4-(1-((3-chloro-5-hydroxyphenyl)carbamoyl)piperidin-4-yl)-2,3-dioxopiperazine-1-carboxamido)acetamido)-7-fluoro-2-hydroxy-3,4-dihydro-2H-benzo[e][1,2]oxaborinine-8-carboxylic acid]
IC50 [2]: > 250 µM

O=C(O)c1cccc2c1OB(O)[C@@H](NC(=O)[C@H](NC(=O)N1CCN(Cc3cc(F)c(O)c(O)c3Cl)C(=O)C1=O)c1ccc(P(=O)(O)O)cc1)C2 [Example 504, (R)-3-((R)-2-(4-(2-chloro-5-fluoro-3,4-dihydroxybenzyl)-2,3-dioxopiperazine-1-carboxamido)-2-(4-phosphonophenyl)acetamido)-2-hydroxy-3,4-dihydro-2H-benzo[e][1,2]oxaborinine-8-carboxylic acid]
MIC (E. coli AG100A): < 1 µg/mL
MIC (A. baumannii ATCC 19606): < 1 µg/mL
MIC ([1]; Pseudomonas aeruginosa, read-out: MIC P. aeruginosa ΔmexAB-oprM): < 1 µg/mL
MIC (E. coli AG100): < 1 µg/mL
MIC (E. coli D22): 2 to 4 µg/mL (≈ 2.72 to 5.44 µM)
MIC (P. aeruginosa ATCC 27853): < 1 µg/mL
MIC (K. pneumoniae 848844): 2 to 4 µg/mL (≈ 2.72 to 5.44 µM)

Source: patent US20240270762A1, “PENICILLIN-BINDING PROTEIN INHIBITORS” (priority 2021, published 2024)
